Experimental data taken from US12319652B2, “Salts and solid forms of (R)-1-(5-methoxy-1H-indol-1-yl)-N,N-dimethylpropan-2-amine” (priority 2021, dated 2025).
Where two headings read alike, the source gives them in different places.

Experiments:
[1] = Dynamic vapor sorption (DVS); type: physicochemical; settings: for DVS isotherm type / hygroscopicity: 0 to 90 to 0% RH; for DVS weight gain at 70% RH: 70% RH (printed 70° RH in Example 8); for DVS desorption behaviour (hysteresis): during desorption
Procedure, shortened: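 At 25 °C, 20 to 50 mg sample was dried at 0% RH for 60 minutes, then humidity raised 0-30% in 5% steps and 30-90% in 10% steps, with matching desorption back to 0%. Equilibrium set at dm/dt 0.002%/min; amorphous material was run with fixed 1 hour steps.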

[2] = Solubility determinations in SIF buffers (FaSSIF, FeSSIF, FaSSGF); type: physicochemical; settings: for Solubility in SIF buffers: FaSSIF, FeSSIF and FaSSGF, 37° C., 24 h, concentration tested 30 mg/ml
Procedure, shortened: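 Salt forms suspended at 30 mg/ml in FaSSIF, FeSSIF or FaSSGF at 37° C. for 24 h, pH kept in range with 1 M HCl or NaOH. Supernatants sampled at 1, 3, 6 and 24 h, centrifuged and quantified by HPLC as compound 1 free base against amorphous compound 1 calibrants; pellets checked by XRPD for form change.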

[3] = type: physicochemical; settings: for Change of purity profile / CP: 10-day time point
[4] = Amorphous forms and thermal study (glass temperature Tg by DSC/TGA); type: physicochemical; settings: for Glass temperatures (Tg): amorphous form
[5] = Heat-up/cool down (HUCD) crystallization of compound 1 Fumarate in different solvents
[6] = Amorphisation activity: Antisolvent/N2 flow, 50 mg
[7] = Amorphisation activity: Freeze dry, 50 mg
[8] = Amorphisation activity: HFIPA Evaporation o/n, 50 mg
[9] = Amorphisation activity: HFIPA Evaporation, 50 mg

SMILES: COc1ccc2c(ccn2C[C@@H](C)N(C)C)c1.Cl [Compound 1 HCl]
- DVS isotherm type / hygroscopicity [1]: slightly hygroscopic isotherm
- DVS isotherm type / hygroscopicity ([1]; listed as Compound 1·HCl): slightly hygroscopic isotherm
- DVS isotherm type / hygroscopicity ([1]; listed as compound 1·HCl): slightly hygroscopic
- DVS weight gain at 70% RH [1]: ca. 0.2 % w/w
- DVS mono and multilayer sorption >80% RH ([1]; >80% RH): ca. 0.5 % w.w
- DVS desorption behaviour (hysteresis) [1]: small water affinity hysteresis
- DVS desorption behaviour (hysteresis) ([1]; listed as Compound 1·HCl): small water affinity hysteresis
- Disproportionation in SIF buffers [2]: disproportionation not observed
- Solubility in SIF buffers ([2]; listed as HC): freely soluble
- Solubility in SIF buffers ([2]; listed as compound 1·HCl): Freely soluble
- Change of purity profile / CP ([3]; 40° C./75% RH): no reduction in CP
- Change of purity profile / CP ([3]; 40° C./75% RH, listed as compound 1·HCl): little changed
- CP ([3]; 40° C./75% RH, over 10 days): 99.60 % area
- Stability at 40° C./75% RH ([3]; 10 days, listed as compound 1·HCl): Chemically and physically stable
- Form by XRPD [4, 6]: Form A
- Outcome [4, 6]: Crystalline
- Form by XRPD [4, 7]: Form A
- Outcome [4, 7]: Crystalline
- Form by XRPD [4, 8]: Form A
- Outcome [4, 8]: Crystalline
- Form by XRPD [4, 9]: Form A
- Outcome [4, 9]: Crystalline
- Outcome ([4]; Hot plate heat-up, 20 to 236 ° C.): Form A
- Outcome ([4]; Hot stage plate heat-up, 20 to 260 ° C.): Amorphous
- Outcome ([4]; Hot stage plate heat-up, 20 to 275 ° C.): Amorphous
- Outcome ([4]; Open Pan DSC, 20 to 220 to −20, O/N 20 to 250 ° C.): Amorphous
- Outcome ([4]; Sealed DSC, 20 to 220 to −20 to 250 ° C.): Amorphous
- Outcome ([4]; TGA, 20 to 220 to −20 to 250 ° C.): Amorphous
- Glass temperatures (Tg) [4]: 37 °C

SMILES: COc1ccc2c(ccn2C[C@@H](C)[NH+](C)C)c1.O=C(O)/C=C/C(=O)O [Compound 1 fumarate, (R)-1-(5-methoxy-1H-indol-1-yl)-N,N-dimethylpropan-2-amine fumarate]
- RH above which pronounced mono, multilayer sorption and probable deliquescence occurred [1]: > 80 % RH
- DVS isotherm type / hygroscopicity ([1]; listed as Compound 1·Fumarate, fumarate): deliquescent type isotherm
- DVS isotherm type / hygroscopicity ([1]; listed as compound 1·Fumarate, fumarate): deliquescent
- DVS weight gain at 70% RH [1]: ca. 1 % w/w
- Solubility in SIF buffers [2]: freely soluble
- Change of purity profile / CP ([3]; 40° C./75% RH): reduction in CP
- HPLC peak RRT 0.93 ([3]; salt before storage (t = 0)): 0.36
- HPLC peak RRT 1.00 (reference peak) ([3]; salt before storage (t = 0)): 98.38
- HPLC peak RRT 1.11 ([3]; salt before storage (t = 0)): 0.79
- HPLC peak RRT 1.15 ([3]; salt before storage (t = 0)): 0.27
- HPLC peak RRT 1.17 ([3]; salt before storage (t = 0)): 0.13
- HPLC peak RRT 1.19 ([3]; salt before storage (t = 0)): 0.08
- HPLC peak RRT 0.93 ([3]; t = 5 d at 75% RH at 40° C.): 0.64
- HPLC peak RRT 0.98 ([3]; t = 5 d at 75% RH at 40° C.): 0.05
- HPLC peak RRT 1.00 (reference peak) ([3]; t = 5 d at 75% RH at 40° C.): 96.82
- HPLC peak RRT 1.08 ([3]; t = 5 d at 75% RH at 40° C.): 0.05
- HPLC peak RRT 1.11 ([3]; t = 5 d at 75% RH at 40° C.): 1.06
- HPLC peak RRT 1.15 ([3]; t = 5 d at 75% RH at 40° C.): 0.60
- HPLC peak RRT 1.17 ([3]; t = 5 d at 75% RH at 40° C.): 0.02
- HPLC peak RRT 1.18 ([3]; t = 5 d at 75% RH at 40° C.): 0.27
- HPLC peak RRT 1.20 ([3]; t = 5 d at 75% RH at 40° C.): 0.20
- HPLC peak RRT 1.27 ([3]; t = 5 d at 75% RH at 40° C.): 0.05
- HPLC peak RRT 1.28 ([3]; t = 5 d at 75% RH at 40° C.): 0.03
- HPLC peak RRT 1.39 ([3]; t = 5 d at 75% RH at 40° C.): 0.10
- HPLC peak RRT 1.43 ([3]; t = 5 d at 75% RH at 40° C.): 0.06
- HPLC peak RRT 1.47 ([3]; t = 5 d at 75% RH at 40° C.): 0.06
- HPLC peak RRT 0.93 ([3]; t = 10 d at 75% RH at 40° C.): 0.61
- HPLC peak RRT 0.98 ([3]; t = 10 d at 75% RH at 40° C.): 0.07
- HPLC peak RRT 1.00 (reference peak) ([3]; t = 10 d at 75% RH at 40° C.): 97.08
- HPLC peak RRT 1.08 ([3]; t = 10 d at 75% RH at 40° C.): 0.04
- HPLC peak RRT 1.11 ([3]; t = 10 d at 75% RH at 40° C.): 0.96
- HPLC peak RRT 1.13 ([3]; t = 10 d at 75% RH at 40° C.): 0.05
- HPLC peak RRT 1.15 ([3]; t = 10 d at 75% RH at 40° C.): 0.52
- HPLC peak RRT 1.18 ([3]; t = 10 d at 75% RH at 40° C.): 0.09
- HPLC peak RRT 1.19 ([3]; t = 10 d at 75% RH at 40° C.): 0.12
- HPLC peak RRT 1.20 ([3]; t = 10 d at 75% RH at 40° C.): 0.15
- HPLC peak RRT 1.27 ([3]; t = 10 d at 75% RH at 40° C.): 0.03
- HPLC peak RRT 1.28 ([3]; t = 10 d at 75% RH at 40° C.): 0.05
- HPLC peak RRT 1.34 ([3]; t = 10 d at 75% RH at 40° C.): 0.04
- HPLC peak RRT 1.39 ([3]; t = 10 d at 75% RH at 40° C.): 0.08
- HPLC peak RRT 1.43 ([3]; t = 10 d at 75% RH at 40° C.): 0.04
- HPLC peak RRT 1.45 ([3]; t = 10 d at 75% RH at 40° C.): 0.03
- HPLC peak RRT 1.47 ([3]; t = 10 d at 75% RH at 40° C.): 0.05
- Form by XRPD [4, 6]: Amorphous
- Outcome [4, 6]: Gum
- Form by XRPD [4, 7]: Form A
- Outcome [4, 7]: Crystalline
- Outcome ([4]; Amorphisation activity: Rotary Vac (Methanol), 50 mg): Gum
- Outcome ([4]; Hot plate heat-up, 20 to 165 ° C.): Amorphous
- Outcome ([4]; Hot stage plate heat-up, 20 to 165 ° C.): Amorphous
- Outcome ([4]; Open Pan DSC, 20 to 145 to −20, O/N 20 to 230 ° C.): Amorphous
- Outcome ([4]; Sealed DSC, 20 to 145 to −20 to 230 ° C.): Amorphous
- Outcome ([4]; TGA, 20 to 145 to −20 to 230 ° C.): Amorphous
- Glass temperatures (Tg) [4]: 24 °C
- Form XRPD (oven dried) ([5]; Heptane (5 vol) + Dichloromethane 160 μl): Pattern 1
- Form XRPD (oven dried) ([5]; Heptane (5 vol) + Dioxane 240 μl): Pattern 1
- Observations (t = 3 d @ 20° C.) ([5]; Heptane (5 vol) + Ethanol 180 μl): suspension
- Observations (t = 0 @ T = 20° C.) ([5]; Heptane (5 vol) + Methylethyl ketone 100 μl): suspension
- Form XRPD (oven dried) ([5]; Heptane (5 vol) + tert-Butylmethyl ether 300 μl): Pattern 1
- Observations (t = 3 d @ 20° C.) ([5]; Water (5 vol) + Ethanol 80 μl): solution
